Test results published in patent US7268128B2, “1,3,5-trisubstituted-5-phenyl and 5-pyridyl pyrazolopyrimidinone derivatives having PDE7 inhibiting action” (Ausbio Pharma Co., Ltd., priority 2001, dated 2007).

What follows are molecules tested against T1, PDE7 (type VII phosphodiesterase) (Homo sapiens, UniProt Q13946) (assay: PDE7 inhibiting activity (3H-cAMP hydrolysis, active fraction from MOLT-4 cells)). Details: PDE7 fraction from MOLT-4 cells, 0.064 μM cAMP, 10 μM rolipram present, 2 hours at 25° C.; read-out: IC50 values for phosphodiesterase inhibiting activities (PDE7).
T1 construct: endogenous in cells; host or cells: MOLT-4 (ATCC CRL-1582), soluble fraction, HiTrapQ anion-exchange fraction
T1 sequence (Q13946 whole entry): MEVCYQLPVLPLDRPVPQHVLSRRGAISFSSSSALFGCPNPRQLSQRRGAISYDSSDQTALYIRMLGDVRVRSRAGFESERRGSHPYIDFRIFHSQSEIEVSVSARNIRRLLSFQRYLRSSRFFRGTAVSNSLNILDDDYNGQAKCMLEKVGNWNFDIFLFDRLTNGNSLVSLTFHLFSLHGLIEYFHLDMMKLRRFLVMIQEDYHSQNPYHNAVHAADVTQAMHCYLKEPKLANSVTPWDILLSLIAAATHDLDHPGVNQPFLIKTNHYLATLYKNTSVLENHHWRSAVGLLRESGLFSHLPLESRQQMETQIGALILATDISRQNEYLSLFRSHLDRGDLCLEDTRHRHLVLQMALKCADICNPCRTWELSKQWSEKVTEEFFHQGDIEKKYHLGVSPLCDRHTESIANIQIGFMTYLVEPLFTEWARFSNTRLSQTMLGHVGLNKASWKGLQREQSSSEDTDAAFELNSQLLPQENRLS
Format: biochemical
Protocol: To evaluate the compounds of the present invention for the ability to suppress PDE7 (type VII phosphodiesterase), the method of Biochemical Pharmacol. 48(6), 1219-1223 (1994) was partially modified to perform the following assay:
1) PDE7 (type VII phosphodiesterase) active fraction was obtained. That is, human acute lymphoblastoid lymphoma T cell strain MOLT-4 (purchasable from ATCC under ATCC No. CRL-1582) was cultured in RPMI1640 medium containing 10% fetal bovine serum to obtain 5×10^8 MOLT4 cells. The cells were harvested by centrifugation, and suspended in 10 ml of buffer A (25 mM tris-HCl, 5 mM 2-mercaptoethanol, 2 mM benzamidine, 2 mM EDTA, 0.1 mM 4-(2-aminoethyl)benzenesulfonyl hydrochloride, pH 7=7.5). The cells were homogenized in a Polytoron homogenizer, and centrifuged (4° C., 25,000 G, 10 min). The supernatant was further ultracentrifuged (4° C., 100,000 G, 60 min), and the resulting supernatant was filtered through a 0.2 μm filter to obtain a soluble fraction.
2) HiTrapQ column (5 ml×2) equilibrated with buffer A was charged with the resulting soluble fraction. Phosphodiesterase was eluted using 300 ml of buffer A containing a linear gradient solution of 0 to 0.8M sodium chloride to collect sixty 5 ml fractions. Each fraction was tested for cAMP metabolizing phosphodiesterase activity.
3) The test compounds at desired concentrations were each reacted for 2 hours at 25° C. in a reactant mixture containing 20 mM tris-HCl (pH 7.5), 1 mM MgCl2, 100 μM EDTA, 330 μg/ml bovine serum albumin, 4 μg/ml 5′-nucleotidase, 0.1 μCi^3H-cAMP (0.064 μM cAMP), 10 μM rolipram, and the type VII phosphodiesterase stored solution. QAE-Sephadex suspended in 10 mM HEPES-Na (pH 7.0) was added to the reaction mixture, and the mixture was allowed to stand for 5 minutes. Then, the supernatant was recovered, and QAE-Sephadex was further added, followed by allowing the mixture to stand for 5 minutes. Then, the resulting supernatant was measure for radioactivity.
4) IC50, as the concentration of the test compound that inhibited 50% of the metabolic activity of PDE7, was calculated for each of the compounds.

| Structure (SMILES) | IC50 [nM] |
| --- | --- |
| COc1cc(C(=O)N2CCOCC2)ccc1-c1nc2c(c(C3CCCCC3)nn2C)c(=O)[nH]1 [Example 68, 3-Cyclohexyl-6-[2-methoxy-4-(4-morpholinylcarbonyl)phenyl]-1-methyl-1,5-dihydro-4H-pyrazolo[3,4-d]pyrimidin-4-one] | ≤ 1000 |
| COc1cc(OCC(=O)O)ccc1-c1nc2c(c(C3CCCCC3)nn2C)c(=O)[nH]1 [Example 41, [4-(3-cyclohexyl-1-methyl-4-oxo-4,5-dihydro-1H-pyrazolo[3,4-d]pyrimidin-6-yl)-3-methoxyphenoxy]acetic acid] | ≤ 1000 |
| Cc1nn(C2CCCCC2)c2c(=O)[nH]c(-c3ccc(N)cc3)nc12 [Example 3, 5-(4-Aminophenyl)-1-cyclohexyl-3-methyl-1,6-dihydro-7H-pyrazolo[4,3-d]pyrimidin-7-one] | ≤ 1000 |
| CCOc1cc(N2CCC(NC)CC2)ccc1-c1nc2c(c(C3CCCCC3)nn2C)c(=O)[nH]1 [Example 90, 3-Cyclohexyl-6-{2-ethoxy-4-[4-(methylamino)-1-piperidinyl]phenyl}-1-methyl-1,5-dihydro-4H-pyrazolo[3,4-d]pyrimidin-4-one monomethanesulfonate] | ≤ 10 |
| CNC1CCN(c2cc(OC)c(-c3nc4c(C)nn(C5CCCCC5)c4c(=O)[nH]3)cc2F)CC1 [Example 129, 1-Cyclohexyl-5-{5-fluoro-2-methoxy-4-[4-(methylamino)-1-piperidinyl]phenyl}-3-methyl-1,6-dihydro-7H-pyrazolo[4,3-d]pyrimidin-7-one] | ≤ 1000 |
| CNC1CCN(c2ccc(-c3nc4c(c(C5CCCCC5)nn4C)c(=O)[nH]3)c(OC)c2)CC1 [Example 150, 3-Cyclohexyl-6-{2-methoxy-4-[4-(methylamino)-1-piperidinyl]phenyl}-1-methyl-1,5-dihydro-4H-pyrazolo[3,4-d]pyrimidin-4-one monomethanesulfonate] | ≤ 10 |
| COc1cc(S(=O)(=O)NCCCO)ccc1-c1nc2c(c(C3CCCCC3)nn2C)c(=O)[nH]1 [Example 159, 4-(3-Cyclohexyl-1-methyl-4-oxo-4,5-dihydro-1H-pyrazolo[3,4-d]pyrimidin-6-yl)-N-(3-hydroxypropyl)-3-methoxybenzenesulfonamide] | ≤ 1000 |
| CNCCN(C)c1ccc(-c2nc3c(C)nn(C4CCCCC4)c3c(=O)[nH]2)c(OC)c1 [Example 103, 1-Cyclohexyl-5-(2-methoxy-4-{methyl[2-(methylamino)ethyl]amino}phenyl)-3-methyl-1,6-dihydro-7H-pyrazolo[4,3-d]pyrimidin-7-one monofumarate] | ≤ 10 |
| COc1cc(NS(C)(=O)=O)ccc1-c1nc2c(c(C3CCCCC3)nn2C)c(=O)[nH]1 [Example 142, N-[4-(3-cyclohexyl-1-methyl-4-oxo-4,5-dihydro-1H-pyrazolo[3,4-d]pyrimidin-6-yl)-3-methoxyphenyl]methanesulfonamide] | ≤ 10 |
| COc1cc(N(C)CCO)ccc1-c1nc2c(C)nn(C3CCCCC3)c2c(=O)[nH]1 [Example 107, 1-Cyclohexyl-5-{4-[(2-hydroxyethyl)(methyl)amino]-2-methoxyphenyl}-3-methyl-1,6-dihydro-7H-pyrazolo[4,3-d]pyrimidin-7-one] | ≤ 10 |
| COc1cc(S(=O)(=O)N2CCC(N)C2)ccc1-c1nc2c(c(C3CCCCC3)nn2C)c(=O)[nH]1 (centres unmarked) [Example 172, 6-{4-[(3-Amino-1-pyrrolidinyl)sulfonyl]-2-methoxyphenyl}-3-cyclohexyl-1-methyl-1,5-dihydro-4H-pyrazolo[3,4-d]pyrimidin-4-one monomethanesulfonate] | ≤ 1000 |
| COc1cc(N2CCCNCC2)ccc1-c1nc2c(C)nn(C3CCCCC3)c2c(=O)[nH]1 [Example 125, 1-Cyclohexyl-5-[4-(1,4-diazepan-1-yl)-2-methoxyphenyl]-3-methyl-1,6-dihydro-7H-pyrazolo[4,3-d]pyrimidin-7-one] | ≤ 10 |
| CCOC(=O)Nc1ccc(-c2nc3c(c(C4CCCCC4)nn3C)c(=O)[nH]2)c(OC)c1 [Example 145, Ethyl 4-(3-cyclohexyl-1-methyl-4-oxo-4,5-dihydro-1H-pyrazolo[3,4-d]pyrimidin-6-yl)-3-methoxyphenylcarbamate] | ≤ 10 |
| COc1cc([N+](=O)[O-])ccc1-c1nc2c(C)nn(C3CCCCC3)c2c(=O)[nH]1 [Example 8, 1-Cyclohexyl-5-(2-methoxy-4-nitrophenyl)-3-methyl-1,6-dihydro-7H-pyrazolo[4,3-d]pyrimidin-7-one] | ≤ 1000 |
| COc1cc(C(=O)N2CCN(C)CC2)ccc1-c1nc2c(c(C3CCCCC3)nn2C)c(=O)[nH]1 [Example 67, 3-Cyclohexyl-6-{2-methoxy-4-[(4-methyl-1-piperazinyl)carbonyl]phenyl}-1-methyl-1,5-dihydro-4H-pyrazolo[3,4-d]pyrimidin-4-one monomethanesulfonate] | ≤ 1000 |
| COc1cc(S(=O)(=O)NCCN(C)C)ccc1-c1nc2c(c(C3CCCCC3)nn2C)c(=O)[nH]1 [Example 56, 4-(3-Cyclohexyl-1-methyl-4-oxo-4,5-dihydro-1H-pyrazolo[3,4-d]pyrimidin-6-yl)-N-[2-(dimethylamino)ethyl]-3-methoxybenzenesulfonamide monochloride] | ≤ 1000 |
| COc1cc(N2CCN(C)C2=O)ccc1-c1nc2c(c(C3CCCCC3)nn2C)c(=O)[nH]1 [Example 152, 3-Cyclohexyl-6-[2-methoxy-4-(3-methyl-2-oxo-1-imidazolidinyl)phenyl]-1-methyl-1,5-dihydro-4H-pyrazolo[3,4-d]pyrimidin-4-one] | ≤ 10 |

Results, then the molecule that gave them:

| IC50 [nM] | Structure (SMILES) |
| --- | --- |
| ≤ 1000 | COc1cc(S(=O)(=O)N2CCNCC2)ccc1-c1nc2c(C)nn(C3CCCCC3)c2c(=O)[nH]1 [Example 217, 1-Cyclohexyl-5-[2-methoxy-4-(1-piperazinylsulfonyl)phenyl]-3-methyl-1,6-dihydro-7H-pyrazolo[4,3-d]pyrimidin-7-one] |
| ≤ 1000 | COc1cc(S(=O)(=O)N2CCCNCC2)ccc1-c1nc2c(C)nn(C3CCCCC3)c2c(=O)[nH]1 [Example 203, 1-Cyclohexyl-5-[4-(1,4-diazepan-1-ylsulfonyl)-2-methoxyphenyl]-3-methyl-1,6-dihydro-7H-pyrazolo[4,3-d]pyrimidin-7-one monomethanesulfonate] |
| ≤ 10 | COc1cc(NC2CCN(C)CC2)ccc1-c1nc2c(C)nn(C3CCCCC3)c2c(=O)[nH]1 [Example 232, 1-Cyclohexyl-5-{2-methoxy-4-[(1-methyl-4-piperidinyl)amino]phenyl}-3-methyl-1,6-dihydro-7H-pyrazolo[4,3-d]pyrimidin-7-one] |
| ≤ 1000 | CCNC1CCN(c2ccc(-c3nc4c(C)nn(C5CCCCC5)c4c(=O)[nH]3)c(OCC)c2)CC1 [Example 253, 1-Cyclohexyl-5-{2-ethoxy-4-[4-(ethylamino)-1-piperidinyl]phenyl}-3-methyl-1,6-dihydro-7H-pyrazolo[4,3-d]pyrimidin-7-one] |
| ≤ 10 | COCCNc1ccc(-c2nc3c(C)nn(C4CCCCC4)c3c(=O)[nH]2)c(OC)c1 [Example 225, 1-Cyclohexyl-5-{2-methoxy-4-[(2-methoxyethyl)amino]phenyl}-3-methyl-1,6-dihydro-7H-pyrazolo[4,3-d]pyrimidin-7-one] |
| ≤ 1000 | COc1cc(S(=O)(=O)N(C)CCN)ccc1-c1nc2c(C)nn(C3CCCCC3)c2c(=O)[nH]1 [Example 210-1, N-(2-aminoethyl)-4-(1-cyclohexyl-3-methyl-7-oxo-6,7-dihydro-1H-pyrazolo[4,3-d]pyrimidin-5-yl)-3-methoxy-N-methylbenzenesulfonamide] |
| ≤ 10 | CCOc1cc(N2CCC(N)CC2)ccc1-c1nc2c(C)nn(C3CCCCC3)c2c(=O)[nH]1 [Example 260, 5-[4-(4-Amino-1-piperidinyl)-2-ethoxyphenyl]-1-cyclohexyl-3-methyl-1,6-dihydro-7H-pyrazolo[4,3-d]pyrimidin-7-one] |
| ≤ 1000 | CCn1nc(C2CCCCC2)c2c(=O)[nH]c(-c3ccc(N4CCN(C)CC4)cc3OC)nc21 [Example 194, 3-Cyclohexyl-1-ethyl-6-[2-methoxy-4-(4-methyl-1-piperazinyl)phenyl]-1,5-dihydro-4H-pyrazolo[3,4-d]pyrimidin-4-one] |
| ≤ 1000 | CCn1nc(C2CCCCC2)c2c(=O)[nH]c(-c3ccc(S(=O)(=O)N4CCCN(C)CC4)cc3OC)nc21 [Example 208, 3-Cyclohexyl-1-ethyl-6-{2-methoxy-4-[(4-methyl-1,4-diazepan-1-yl)sulfonyl]phenyl}-1,5-dihydro-4H-pyrazolo[3,4-d]pyrimidin-4-one] |
